{
  "source": "patent US20230092005A1",
  "about": "“COMPOSITIONS AND METHODS FOR TREATING CANCER AND TUMOR” (OBLATO, INC., priority 2020, published 2023)",
  "key": {"[1]": {"tested_on": "human A549 lung cancer xenografts", "assay": "Hematoxylin & Eosin (H&E) staining of extracted A549 xenograft tumors (necrosis grading)", "assay_type": "in vivo, BALB/c Nude mouse", "conditions": "N=10", "text": "Histopathological test: The extracted tumors were fixed in 10% neutral buffered formalin solution (10% neutral buffered formalin). After sectioning the tumors to a certain thickness (about 3 mm), those were subjected to the general preparation procedure, embedded in paraffin, cut into 4 to 5 μm size, and tissue sections were stained with Hematoxylin and Eosin (H&E) and TUNEL. IHC (Immunohistochemistry) slides, cut into 4 to 5 μm size, were produced and sent to the sponsor (Negative Control Group (G1), Test substance 2 (G3, Animal ID Nos.: 1301, 1302, 1303, 1307, 1310), Test substance 3 (G4, Animal ID Nos.: 1401, 1402, 1404, 1408, 1409)). Determination of Hematoxylin & Eosin (H&E) staining results: Necrosis of tumors was assessed by grading (±, +, ++, +++, ++++) the extent of necrosis in the whole section of the tumor. Necrosis was evaluated by morphological changes such as collapse or disappearance of the nucleus and eosinophilic change of cytoplasm. The extent of tumor necrosis was determined by the percentage of the following necrosis area. Histopathological test (Table 7, FIGS. 7-11): The extracted fixed tumor was cut to a certain thickness (about 3 mm), then subjected to general tissue treatment, paraffin-embedded to produce blocks, and tissue sections of 4 to 5 μm in size were prepared. Then, Hematoxylin & Eosin (H&E) staining and TUNEL staining were performed."}, "[2]": {"tested_on": "human A549 lung cancer xenografts", "assay": "TUNEL staining of extracted A549 xenograft tumors (apoptosis counting and grading)", "assay_type": "in vivo, BALB/c Nude mouse", "conditions": "for Apoptosis grade + : number of animals / Apoptosis grade ++ (moderate): number of animals / Apoptosis grade +++ (marked): number of animals / Apoptosis grade ++++ (severe): number of animals / Apoptosis grade ± (minimal): number of animals: N=10; for Apoptosis counting No. (group mean ± S.D.): TUNEL positive cells per 1 mm^2", "text": "Histopathological test: The extracted tumors were fixed in 10% neutral buffered formalin solution (10% neutral buffered formalin). After sectioning the tumors to a certain thickness (about 3 mm), those were subjected to the general preparation procedure, embedded in paraffin, cut into 4 to 5 μm size, and tissue sections were stained with Hematoxylin and Eosin (H&E) and TUNEL. IHC (Immunohistochemistry) slides, cut into 4 to 5 μm size, were produced and sent to the sponsor (Negative Control Group (G1), Test substance 2 (G3, Animal ID Nos.: 1301, 1302, 1303, 1307, 1310), Test substance 3 (G4, Animal ID Nos.: 1401, 1402, 1404, 1408, 1409)). Determination of TUNEL staining results: After histological examination of the entire cross-section of the tumor for grading (±, +, ++, +++, ++++) of apoptosis, the nucleated brown stained cells were read as […] was counted. The apoptosis of the tumor was determined by the number of positive cells per […] (1 mm^2). The apoptosis of the tumor was determined by calculating the average number of positive cells and graded into the corresponding severity. The number of positive cells in which apoptosis occurred was determined by counting the number of positive cells per unit area (1 mm^2). Histopathological test (Table 7, FIGS. 7-11): The extracted fixed tumor was cut to a certain thickness (about 3 mm), then subjected to general tissue treatment, paraffin-embedded to produce blocks, and tissue sections of 4 to 5 μm in size were prepared. Then, Hematoxylin & Eosin (H&E) staining and TUNEL staining were performed."}},
  "note": "Values joined by “and” are separate entries in the source; they are usually repeats but may differ in a detail not shown here. Equal entries are not always repeated.",
  "data": [
    {"smiles": "CC(C)(C)/[N+]([O-])=C/c1ccc(S(=O)(=O)O)cc1S(=O)(=O)O", "note": "[OKN-007, Disodium 4-[(Z)-[tert-butyl(oxido)azaniumylidene]methyl]benzene-1,3-disulfonate]", "values": [
      {"measurement": "Necrosis grade + : number of animals", "setting": "[1]; G2, 150 mg/kg P.O.", "result": 3},
      {"measurement": "Necrosis grade ++ (moderate): number of animals", "setting": "[1]; G2, 150 mg/kg P.O.", "result": 2},
      {"measurement": "Necrosis grade +++ (marked): number of animals", "setting": "[1]; G2, 150 mg/kg P.O.", "result": 0},
      {"measurement": "Necrosis grade ++++ (severe): number of animals", "setting": "[1]; G2, 150 mg/kg P.O.", "result": 0},
      {"measurement": "Necrosis grade ± (minimal): number of animals", "setting": "[1]; G2, 150 mg/kg P.O.", "result": 5},
      {"measurement": "Necrosis grade + : number of animals", "setting": "[1]; G3, 300 mg/kg P.O.", "result": 2},
      {"measurement": "Necrosis grade ++ (moderate): number of animals", "setting": "[1]; G3, 300 mg/kg P.O.", "result": 1},
      {"measurement": "Necrosis grade +++ (marked): number of animals", "setting": "[1]; G3, 300 mg/kg P.O.", "result": 0},
      {"measurement": "Necrosis grade ++++ (severe): number of animals", "setting": "[1]; G3, 300 mg/kg P.O.", "result": 0},
      {"measurement": "Necrosis grade ± (minimal): number of animals", "setting": "[1]; G3, 300 mg/kg P.O.", "result": 7},
      {"measurement": "Necrosis grade + : number of animals", "setting": "[1]; G4, 600 mg/kg P.O.", "result": 2},
      {"measurement": "Necrosis grade ++ (moderate): number of animals", "setting": "[1]; G4, 600 mg/kg P.O.", "result": 2},
      {"measurement": "Necrosis grade +++ (marked): number of animals", "setting": "[1]; G4, 600 mg/kg P.O.", "result": 0},
      {"measurement": "Necrosis grade ++++ (severe): number of animals", "setting": "[1]; G4, 600 mg/kg P.O.", "result": 0},
      {"measurement": "Necrosis grade ± (minimal): number of animals", "setting": "[1]; G4, 600 mg/kg P.O.", "result": 6},
      {"measurement": "Apoptosis grade + : number of animals", "setting": "[2]; G2, 150 mg/kg P.O.", "result": 1},
      {"measurement": "Apoptosis grade ++ (moderate): number of animals", "setting": "[2]; G2, 150 mg/kg P.O.", "result": 0},
      {"measurement": "Apoptosis grade +++ (marked): number of animals", "setting": "[2]; G2, 150 mg/kg P.O.", "result": 0},
      {"measurement": "Apoptosis grade ++++ (severe): number of animals", "setting": "[2]; G2, 150 mg/kg P.O.", "result": 0},
      {"measurement": "Apoptosis grade ± (minimal): number of animals", "setting": "[2]; G2, 150 mg/kg P.O.", "result": 9},
      {"measurement": "Apoptosis counting No. (group mean ± S.D.)", "setting": "[2]; G2, 150 mg/kg P.O.", "result": "79.6±29.8 No./mm^2 and 79.6 ± 20.8 No./mm^2"},
      {"measurement": "Apoptosis grade + : number of animals", "setting": "[2]; G3, 300 mg/kg P.O.", "result": 2},
      {"measurement": "Apoptosis grade ++ (moderate): number of animals", "setting": "[2]; G3, 300 mg/kg P.O.", "result": 0},
      {"measurement": "Apoptosis grade +++ (marked): number of animals", "setting": "[2]; G3, 300 mg/kg P.O.", "result": 0},
      {"measurement": "Apoptosis grade ++++ (severe): number of animals", "setting": "[2]; G3, 300 mg/kg P.O.", "result": 0},
      {"measurement": "Apoptosis grade ± (minimal): number of animals", "setting": "[2]; G3, 300 mg/kg P.O.", "result": 8},
      {"measurement": "Apoptosis counting No. (group mean ± S.D.)", "setting": "[2]; G3, 300 mg/kg P.O.", "result": "91.5±32.2", "unit": "No./mm^2"},
      {"measurement": "Apoptosis grade + : number of animals", "setting": "[2]; G4, 600 mg/kg P.O.", "result": 5},
      {"measurement": "Apoptosis grade ++ (moderate): number of animals", "setting": "[2]; G4, 600 mg/kg P.O.", "result": 2},
      {"measurement": "Apoptosis grade +++ (marked): number of animals", "setting": "[2]; G4, 600 mg/kg P.O.", "result": 0},
      {"measurement": "Apoptosis grade ++++ (severe): number of animals", "setting": "[2]; G4, 600 mg/kg P.O.", "result": 0},
      {"measurement": "Apoptosis grade ± (minimal): number of animals", "setting": "[2]; G4, 600 mg/kg P.O.", "result": 3},
      {"measurement": "Apoptosis counting No. (group mean ± S.D.)", "setting": "[2]; G4, 600 mg/kg P.O.", "result": "149.9±59.5", "unit": "No./mm^2"}
    ]}
  ]
}
